The values below come from patent publication US20090143328A1, “Method of Treating Cancer by Administration of Topical Active Corticosteroids” (priority 2001, published 2009).

Type in all cases: in vivo, human
Data set [1] has as its system graft versus leukemia effect (GVL). The data set can be described thus: Overall survival 200 days post-transplant in the same trial (Kaplan-Meier, Cox proportional hazards models). The procedure:
(§1) A randomized, prospective, double blind, placebo controlled, multi-center pivotal trial was conducted to evaluate beclomethasone dipropionate (BDP) as a treatment of cancer by enhancing the graft versus leukemia effect (GVL) while controlling graft versus host disease (GVHD) following hematopoietic stem cell transplant in blood-borne cancer patients. The trial was divided into two phases, the purpose was to monitor short term effectiveness of BDP to control graft versus host disease in the first phase and the second phase was to assess the effect of the drug treatment on long term survival due to recurrence of hematologic malignancy or other causes of death.
(§2) To minimize the exposure of patients to long term exposure to systemic corticosteroids (prednisone or prednisolone), which are used as the standard of care to prevent or treat symptoms of graft versus host disease in conjunction with other immunosuppressive drugs, patients were treated with an oral formulation of BDP. BDP was formulated as two separate oral dosage forms an immediate release (IR) tablet and an enteric coated (EC) tablet. 129 patients were enrolled and 67 patients were randomized to placebo and 62 to BDP, Patients were at least 10 days post allogeneic hematopoietic cell transplantation, had gastrointestinal symptoms consistent with Grade II GVHD, and had endoscopic evidence of GVHD. The diagnosis of GVHD was confirmed by biopsy of the intestine (esophagus, stomach, small intestine, or colon) or skin. After being diagnosed with GVHD, patients were started on standard prednisone therapy. Patients were administered 2 mg/kg/day or 1 mg/kg/day for 10 days as a starting dose. After 10 days at this initial dose, prednisone was tapered over 7 days, after which the patients were maintained on a maintenance physiologic replacement dose of prednisone of 0.0625 mg/kg/day or 0.125 mg/kg/day. Concurrently, patients received BDP at a dose of 2 mg four times daily, for a total dose of 8 mg, or placebo for a maximum of 50 days.
(§3) Safety was primarily assessed based on the following: 1) cumulative systemic corticosteroid exposure, 2) the incidence and degree of HPA axis suppression in patients who had not experienced treatment failure by study day 50, 3) rates of treatment-emergent adverse events, and 4) the overall survival rate 200 days post-transplant.
(§4) The primary analysis of the primary and secondary efficacy endpoints was based on the intent-to-treat principle. The analysis of the primary efficacy endpoint was based on the Kaplan-Meier method and log-rank test stratified by source of allograft. Hypothesis tests of the primary and secondary efficacy endpoints were performed using a two-sided significance level of 0.05. No adjustments were made to the significance level for inferential tests of the secondary efficacy endpoints. All patients who received at least one dose of BDP or placebo were included in the assessment of safety.
Based on a univariate time-dependent Cox proportional hazards model, the risk of mortality during this period was 68% lower following the initiation of treatment with BDP when compared to no treatment (hazard ratio 0.32; 95% CI: 0.12, 0.87; p=0.0252). A multivariate Cox model was used to evaluate the effect of BDP while simultaneously accounting for selected competing causes of mortality after hematopoietic cell transplant. The competing causes of mortality included the subject's age and gender, intensity of the conditioning regimen (myeloablative, non-myeloablative), primary diagnosis, transplant source (bone marrow, peripheral blood stem cells), and degree of HLA match, with greater benefit seen in the patients receiving non-myeloabaltive pre-conditioning.
The hazard ratio for each variable was estimated from a multivariate Cox proportional hazards model.

Data set [2] has as its system graft versus host disease (GVHD). Briefly: Randomized, double blind, placebo controlled trial of oral BDP: time to treatment failure (GVHD) through study days 50 and 80. The procedure: as §1, §2
Patients were monitored at clinic visits for evidence of increase in symptoms of GVHD (primary treatment failure). The primary efficacy endpoint was the time to treatment failure through study day 50. Treatment failure was defined as a worsening or recurrence of GVHD of such degree as to require an increase in immunosuppressive therapy. A subject was defined as a treatment failure if the patient required prednisone or equivalent IV corticosteroids at doses higher than that specified in the protocol, in response to uncontrolled signs or symptoms of GVHD; or required additional immunosuppressant medications other than those permitted by the protocol in response to uncontrolled signs or symptoms of GVHD. The time to treatment failure was calculated as the number of days elapsed between the randomization date and the date on which the subject was first identified as a treatment failure by the investigator.
Secondary efficacy endpoints included: 1) the time to treatment failure through study day 80, 2) the proportion of subjects who experienced treatment failure by study days 10, 30, 50, 60, and 80, and 3) Karnofsky performance status scores.
as §4
The hazard ratio was estimated from a univariate Cox proportional hazards model. Placebo serves as the reference group.

Data set [3] can be described thus: Safety assessment in the same trial. The conditions noted are these: oral BDP 2 mg four times daily for 50 days plus prednisone induction vs placebo.
Description: as §3, §4

Where [4] appears, read: Kaplan-Meier estimate, fraction, all randomized subjects.

As to `CCC(=O)OCC(=O)[C@@]1(OC(=O)CC)[C@@H](C)C[C@H]2[C@@H]3CCC4=CC(=O)C=C[C@]4(C)[C@@]3(Cl)[C@@H](O)C[C@@]21C` [BDP, beclomethasone dipropionate], the “Relative reduction in mortality at 200 days post transplant” value in data set [1] (200 days post transplant) came to 69%. In data set [1] (200 days post-transplant), the “Deaths with relapse of the underlying malignancy as primary cause, number of patients” value came out at 2 patients and the “Deaths with relapse of the underlying malignancy as primary cause, share of group” value was found to be 3%. Also, in data set [1] (200 days post-transplant, BDP vs no treatment), the “Hazard ratio, mortality, univariate time-dependent Cox model” value was 0.32. Also, the “Overall survival rate 200 days post-transplant” value in data set [1] (Kaplan-Meier estimate, fraction) is given as 0.91. The “Coefficient (bi), multivariate proportional hazards model for overall survival 200 days post-transplant” value in data set [1] (safety population) is −1.155. Besides, the “HR [exp(bi)], duration of overall survival 200 days post-transplant, multivariate Cox model” value in data set [1] (safety population, adjusted for competing causes of mortality) amounted to 0.32. Moreover, the “Lowering of risk of mortality following initiation of BDP compared to no treatment” value in data set [1] (univariate time-dependent Cox proportional hazards model, 200 days post-transplant) stood at 68%. In addition, the “Reduction of risk of treatment failure relative to placebo, 50-day study treatment period” value in data set [2] (50-day study treatment period) is 37%. Moreover, in data set [2] (80-day study period), the “Increase of median time to treatment failure compared to placebo” value is recorded as “more than 28 days” and the “Reduction of risk of treatment failure relative to placebo, entire 80-day study period” value is recorded as 44%. Besides, in data set [2] (setting [4]), the “Treatment failure rate by Study Day 50” value is on record as 0.31 and the “Treatment failure rate by Study Day 80” value was 0.39. Further, in data set [2] (all randomized subjects), the “Median time to treatment failure (95% CI), through Study Day 50” value is given as “Not achieved” and the “Median time to treatment failure (95% CI), through Study Day 80” value is recorded as “Not achieved”. Moreover, the “Patients who met the treatment failure endpoint during the first 10 days of study treatment” value in data set [2] (first 10 days, all patients on high-dose prednisone) was “Eight”. Also, the “Number with treatment failure, through Study Day 50” value in data set [2] (intent-to-treat, BDP N = 62, 2 mg four times daily oral, with prednisone induction and taper) stood at 18. The “Number with treatment failure, through Study Day 80” value in data set [2] (intent-to-treat, BDP N = 62, includes 30-day post-treatment observation period) amounted to 22. Besides, the “Share of the total number of treatment failures that occurred within the first 10 days of randomization” value in data set [2] (prior to the prednisone taper) amounted to 44%. In data set [2] (study day 50), the “Cumulative treatment failure rate by study day 50” value stood at 31%. Besides, the “Cumulative treatment failure rate by study day 80” value in data set [2] (study day 80) came out at 39%. For the same compound, in data set [3], the Clinically significant toxicity was “without an increase in clinically significant toxicity”.
